The text below walks through data of US20030087906A1, “NITROGEN SUBSTITUTED BIARYL PURINE DERIVATIVES AS POTENT ANTIPROLIFERATIVE AGENTS” (priority 2001, published 2003).

This experiment relates to implanted tumors. The experiment can be described thus: Efficacy study: delay in growth of implanted tumors, regressions, tumor-free survivors. It is filed as in vivo, athymic mice. How it is done: The following data in Table 9 summarize the in vivo properties of several compounds of the current invention. The protocol for the experiment is as follows. The dose-range finding study consists of four groups of three athymic mice each (four dose levels.) The compound is administered on the basis of individual animal body weight. The route is intraperitoneal (IP) and the treatment schedule is daily for 14 days (qd×14) or once every 4 days for 12 days (q4d×3).
The efficacy study consists of three compound-treated groups (six mice/group), a positive control-treated group (six mice), and a vehicle-treated control group of 12 mice. Test compounds were administered IP under the treatment schedules listed above (qd×14 or q4d×3), whereas the positive control agent (Taxol) was administered intravenously (IV) at a dosage level of 15 mg/kg/dose for five consecutive days (qd×5). All agents were administered on the basis of individual animal body weight. Treatment began when the implanted tumors were approximately 100 mg in size (range of 65 to 200 mg). The mice were observed daily for survival. Each tumor was measured by caliper in two dimensions and converted to tumor mass using the formula for a prolate ellipsoid (a×b^2/2) and assuming unit density. Tumor measurements and animal body weights were recorded twice weekly. Antitumor activity was assessed by the delay in tumor growth of the treated groups in comparison to the vehicle-treated control group, partial and complete regressions, and tumor-free survivors.

In the case of `CC(C)n1cnc2c(NCc3ccc(-c4ccsc4)cc3)nc(N[C@H]3CC[C@H](N)CC3)nc21` [Compound 12], the “T-C” value reads like this: (0.27 mg/kg IP q4d × 3) 1.2 days; (0.4 mg/kg IP q4d × 3) 0.2 days; (0.6 mg/kg IP q4d × 3) 0.3 days. Further, the Tumor free/total reads like this: (0.27 mg/kg IP q4d × 3) 0/6; (0.4 mg/kg IP q4d × 3) 0/6; (0.6 mg/kg IP q4d × 3) 0/6.
